Assay type in all cases: in vivo
Assay [1] concerns Alopecurus myosuroides (ALOMY). As to the kind of experiment: Pre-emergence biological efficacy, glasshouse pot test. The following applies: 312 h, 1,000 g/ha, evaluated after 13 days, 100=total damage, 0=no damage, read-out: Percentage damage caused to weed species, pre-emergence, ALOMY. As to the method: (§1) Seeds of Alopecurus myosuroides (ALOMY), Setaria faberi (SETFA), Echinochloa crus-galli (ECHCG), Solanum nigrum (SOLNI), Amaranthus retroflexus (AMARE) and Ipomoea hederaceae (IPOHE) were sown in standard soil in pots. After cultivation for one day under controlled conditions in a glasshouse (at 24/16° C., day/night; 14 hours light; 65% humidity), the plants were sprayed with an aqueous spray solution derived from the formulation of the technical active ingredient in acetone/water (50:50) solution containing 0.5% Tween 20 (polyoxyethylene sorbitan monolaurate, CAS RN 9005-64-5) to give a final dose of 1000 g/ha of test compound.
(§2) The test plants were then grown under controlled conditions in the glasshouse (at 24/16° C., day/night; 14 hours light; 65% humidity) and watered twice daily. After 13 days the test was evaluated (100=total damage to plant; 0=no damage to plant).

Assay [2] deals with Setaria faberi (SETFA). The assay is described as above. The following applies: 312 h, 1,000 g/ha, evaluated after 13 days, 100=total damage, 0=no damage, read-out: Percentage damage caused to weed species, pre-emergence, SETFA. As to the method: as §1, §2
Assay [3] has as its system Echinochloa crus-galli (ECHCG). The description is as above. The following applies: 312 h, 1,000 g/ha, evaluated after 13 days, 100=total damage, 0=no damage, read-out: Percentage damage caused to weed species, pre-emergence, ECHCG. As to the method: as §1, §2
Assay [4] relates to Ipomoea hederaceae (IPOHE). The assay is described as above. The settings on record: 312 h, 1,000 g/ha, evaluated after 13 days, 100=total damage, 0=no damage, read-out: Percentage damage caused to weed species, pre-emergence, IPOHE. As to the method: as §1, §2
For assay [5], the system named is Solanum nigrum (SOLNI). The assay is described as above. The settings on record: 312 h, 1,000 g/ha, evaluated after 13 days, 100=total damage, 0=no damage, read-out: Percentage damage caused to weed species, pre-emergence, SOLNI. As for the experimental part:
as §1, §2

Assay [6] deals with Amaranthus retroflexus (AMARE). The description is as above. The settings on record: 312 h, 1,000 g/ha, evaluated after 13 days, 100=total damage, 0=no damage, read-out: Percentage damage caused to weed species, pre-emergence, AMARE. As to the method:
as §1, §2

The subject of assay [7] is Alopecurus myosuroides (ALOMY). As to the kind of experiment: Post-emergence biological efficacy, glasshouse pot test. The settings on record: 312 h, 1,000 g/ha, post-emergence (sprayed after 8 days), evaluated after 13 days, 100=total damage, 0=no damage, read-out: Percentage damage caused to weed species, post-emergence, ALOMY. As for the experimental part:
as §1, with “8 days” for “one day”
(§3) The test plants were then grown on under controlled conditions in a glasshouse (at 24/16° C., day/night; 14 hours light; 65% humidity) and watered twice daily. After 13 days the test was evaluated (100=total damage to plant; 0=no damage to plant).

Assay [8] has as its system Setaria faberi (SETFA). The assay is described as above. The following applies: 312 h, 1,000 g/ha, post-emergence (sprayed after 8 days), evaluated after 13 days, 100=total damage, 0=no damage, read-out: Percentage damage caused to weed species, post-emergence, SETFA. As to the method: as §1, with “8 days” for “one day”
as §3

Assay [9] deals with Echinochloa crus-galli (ECHCG). The description is as above. The settings on record: 312 h, 1,000 g/ha, post-emergence (sprayed after 8 days), evaluated after 13 days, 100=total damage, 0=no damage, read-out: Percentage damage caused to weed species, post-emergence, ECHCG. As to the method: as §1, with “8 days” for “one day”
as §3

Assay [10] relates to Ipomoea hederaceae (IPOHE). The assay is described as above. The settings on record: 312 h, 1,000 g/ha, post-emergence (sprayed after 8 days), evaluated after 13 days, 100=total damage, 0=no damage, read-out: Percentage damage caused to weed species, post-emergence, IPOHE. As to the method: as §1, with “8 days” for “one day”
as §3

Assay [11] concerns Solanum nigrum (SOLNI). Described as above. The settings on record: 312 h, 1,000 g/ha, post-emergence (sprayed after 8 days), evaluated after 13 days, 100=total damage, 0=no damage, read-out: Percentage damage caused to weed species, post-emergence, SOLNI. As to the method:
as §1, with “8 days” for “one day”
as §3

Assay [12] relates to Amaranthus retroflexus (AMARE). The assay is described as above. The following applies: 312 h, 1,000 g/ha, post-emergence (sprayed after 8 days), evaluated after 13 days, 100=total damage, 0=no damage, read-out: Percentage damage caused to weed species, post-emergence, AMARE. As for the experimental part: as §1, with “8 days” for “one day”
as §3

For `COC(=O)c1nc(Cl)cc(N)c1C=C(C)C` [Compound 2-165, 4-Amino-6-chloro-3-(2-methylprop-1-enyl)-pyridine-2-carboxylic acid methyl ester], the pest or weed control at 1000 g/ha in assay [1] was 80%; in [2], 90%; in [3], 70%; in [4] it was 90%; in assay [5] it was 100%; in [6], 100%. Besides, the pest or weed control at 1000 g/ha in assay [7] was 70%; in [8] it was 90%; in [9] it was 70%; in assay [10], 70%; in assay [11], 90%; in [12] it was 100%.
On to `C=Cc1c(C(=O)OC)nc(Cl)c(Cl)c1N` [Compound 2-20, 4-amino-5,6-dichloro-3-ethenyl-1-pyridine-2-carboxylic acid methyl ester], for which the pest or weed control at 1000 g/ha came out at 90% in [1]; 90% in [2]; 90% in assay [3]; 100% in assay [4]; 100% in assay [5]; 100% in assay [6]. Besides, the pest or weed control at 1000 g/ha worked out at 90% in assay [7]; 90% in [8]; 90% in assay [9]; 100% in assay [10]; 100% in [11]; 100% in assay [12].
Turning to `C=Cc1c(NC2CC2)cc(Cl)nc1C(=O)OC` [Compound 23-4, 6-Chloro-4-cyclopropylamino-3-ethenyl-pyridine-2-carboxylic acid methyl ester], the pest or weed control at 1000 g/ha in [1] was determined as 70%; in assay [2] it was 80%; in assay [3] it was 70%; in [4], 80%; in [5] it was 100%; in assay [6], 100%. The pest or weed control at 1000 g/ha in [7] was determined as 60%; in assay [8], 80%; in [9], 30%; in assay [10], 70%; in assay [11], 100%; in [12] it was 100%.
As to `C=Cc1c(N)cc(Cl)nc1C(=O)OC` [Compound 2-4, 4-amino-6-chloro-3-ethenyl-pyridine-2-carboxylic acid methyl ester], the pest or weed control at 1000 g/ha in assay [1] was determined as 90%; in [2], 90%; in [3], 90%; in [4], 100%; in assay [5], 100%; in [6], 100%. Further, the pest or weed control at 1000 g/ha in [7] worked out at 90%; in assay [8], 100%; in assay [9], 80%; in assay [10], 80%; in assay [11], 100%; in assay [12], 100%.
Take `COC(=O)c1nc(Cl)cc(N)c1C(F)(F)F` [Compound 2-2, 4-amino-6-chloro-3-trifluoromethyl-pyridine-2-carboxylic acid methyl ester]: the pest or weed control at 1000 g/ha in [1] came out at 20%; in [2], 0%; in [3], 10%; in assay [4] it was 90%; in assay [5] it was 80%; in assay [6] it was 80%. Also, the pest or weed control at 1000 g/ha came out at 10% in [7]; 10% in assay [8]; 10% in assay [9]; 70% in [10]; 80% in assay [11]; 80% in [12].
Regarding `COC(=O)c1nc(Cl)cc(N)c1-c1ccc(Cl)cc1` [Compound 2-168, 4-Amino-6-chloro-3-(4-chlorophenyl)-pyridine-2-carboxylic acid methyl ester], the pest or weed control at 1000 g/ha in assay [1] worked out at 30%; in assay [2] it was 0%; in [3], 20%; in assay [4], 80%; in [5], 80%; in [6], 90%. The pest or weed control at 1000 g/ha in assay [7] worked out at 20%; in [8], 20%; in assay [9], 10%; in assay [10], 70%; in assay [11], 80%; in assay [12], 100%.
On to `C/C=C/c1c(N)cc(Cl)nc1C(=O)OC` [2-5 (E isomer), (E)-4-Amino-6-chloro-3-(prop-1-enyl)-pyridine-2-carboxylic acid methyl ester], for which the pest or weed control at 1000 g/ha in assay [1] was 90%; in assay [2], 100%; in [3] it was 70%; in assay [4], 100%; in assay [5], 100%; in assay [6], 90%. For the same molecule, the pest or weed control at 1000 g/ha in assay [7] was 50%; in assay [8], 70%; in assay [9], 60%; in [10], 70%; in assay [11], 90%; in assay [12] it was 100%.
As to `C=Cc1c(C(=O)O)nc(Cl)c(Cl)c1N` [Compound 1-20, 4-Amino-5,6-dichloro-3-ethenyl-pyridine-2-carboxylic acid], the pest or weed control at 1000 g/ha in [1] stood at 90%; in assay [2], 90%; in assay [3] it was 90%; in assay [4] it was 100%; in assay [5], 100%; in assay [6], 100%. Also, the pest or weed control at 1000 g/ha in assay [7] came out at 90%; in [8], 90%; in [9], 90%; in [10] it was 100%; in assay [11] it was 90%; in [12], 100%.

These data come from patent publication US20130065757A1, “CHEMICAL COMPOUNDS” (Syngenta Limited, priority 2010, published 2013).
